Laboratory results reported in EP2252154B1, “METHOD FOR MINIMIZING THE CYTOTOXICITY OF THE EFFECTIVE AGENT IN A COMPOSITION THAT IS ADMINISTERED TO A MAMMAL OR GETS INTO CONTACT WITH A MAMMAL” (Oy Granula AB LTD, priority 2008, dated 2009).
Values after ≈ are worked out from the molar mass of the structure shown. Read-outs that look alike come from different tables or passages of the source.

Experiments:
human keratinocyte cells = tested on: human keratinocyte cells
Method: The composition of the individual compounds included in the compound mixture contained by the samples was in accordance with Table 3B. The cytotoxicity of the sample extracts and powders for human keratinocyte cells was measured. The employed measure of cytotoxicity was the total protein quantity created by the samples, when the samples were incubated together with human keratinocyte cells for a certain incubation time (24 h). For each sample, there was searched a limit value (EC20), by which 20% of the cultivated cells died.

[1] = Antioxidative capacity: inhibition of the peroxidation of lipids; type: biochemical; conditions: pure polyphenols isolated from wood materials
[2] = Peroxide radicals capturing capacity; type: biochemical; conditions: pure polyphenols isolated from wood material; per gram
[3] = pure polyphenols; footnote 1: Willför et al., J. Agric. Food. Chem., 51, 7600-7606 (2003); cited from earlier work
[4] = pure polyphenols; footnote 1: Willför et al., J. Agric. Food. Chem, 51. 26 (2003); cited from earlier work

## Cc1cc(C(C)(C)C)c(O)c(C(C)(C)C)c1 [BTH, butylated hydroxytoluene]
Human keratinocyte cells; from Table 1
  times more cytotoxic with respect to HMR extract mixtures: 50-100 times
Human keratinocyte cells; human, 24 h
  EC20 ppm 24 h: 5.50 ppm

## COc1cc([C@H]2c3cc(O)c(OC)cc3C[C@@H](CO)[C@@H]2CO)ccc1O [Cyclolariciresinol]
[1]
  EC50: 0.017 µg/mL (≈ 0.0472 µM)
[2]
  capturing capacity: 12 mmol/g

## O=C1c2c(O)cc(O)cc2O[C@H](c2ccc(O)cc2)[C@H]1O [Dihydrokaempferol]
[1]
  EC50: 0.488 µg/mL (≈ 1.69 µM)
[2]
  capturing capacity: 0.78 mmol/g

## COc1cc(C[C@H]2C(=O)OC[C@@H]2[C@H](O)c2ccc(O)c(OC)c2)ccc1O [Hydroxymatairesinol]
[3]
  capturing capacity: 5.6 mmol/g
[4]
  EC50: 0.058 µg/mL (≈ 0.155 µM)

## COc1cc(C[C@H]2CO[C@H](c3ccc(O)c(OC)c3)[C@H]2CO)ccc1O [Lariciresinol]
[3]
  capturing capacity: 2.7 mmol/g
[4]
  EC50: 0.126 µg/mL (≈ 0.35 µM)

## COc1cc(C[C@H]2COC(=O)[C@@H]2Cc2ccc(O)c(OC)c2)ccc1O [Matairesinol]
[3]
  capturing capacity: 2.9 mmol/g
[4]
  EC50: 0.099 µg/mL (≈ 0.276 µM)

## Oc1ccc([C@H]2Oc3c(ccc(O)c3O)[C@@H](O)[C@H]2O)cc1O [Melacasidine]
[1]
  EC50: 0.036 µg/mL (≈ 0.118 µM)
[2]
  capturing capacity: 20 mmol/g

## COc1cc(CC2COC(=O)C2(O)Cc2ccc(O)c(OC)c2)ccc1O (stereo not shown) [Nortrachelogenin]
[3]
  capturing capacity: 5.9 mmol/g
[4]
  EC50: 0.053 µg/mL (≈ 0.142 µM)

## O=C1C[C@@H](c2ccccc2)Oc2cc(O)cc(O)c21 [Pinosembrin]
[1]
  EC50: 1.135 µg/mL (≈ 4.43 µM)
[2]
  capturing capacity: 0.49 mmol/g

## Oc1cc(O)cc(/C=C/c2ccccc2)c1 [Pinosylvin]
[1]
  EC50: 0.05 µg/mL (≈ 0.236 µM)
[2]
  capturing capacity: 0.78 mmol/g

## COc1cc(C[C@@H](CO)[C@H](CO)Cc2ccc(O)c(OC)c2)ccc1O [Secoisolariciresinol]
[3]
  capturing capacity: 8.5 mmol/g
[4]
  EC50: 0.037 µg/mL (≈ 0.102 µM)

## O=C1c2c(O)cc(O)cc2O[C@H](c2ccc(O)c(O)c2)[C@H]1O [Taxifolin]
[3]
  capturing capacity: 16 mmol/g
[4]
  EC50: 0.046 µg/mL (≈ 0.151 µM)

## Oc1ccc([C@H]2Oc3c(ccc(O)c3O)[C@@H](O)[C@H]2O)cc1 [Teracasidine]
[1]
  EC50: 0.05 µg/mL (≈ 0.172 µM)
[2]
  capturing capacity: 7.8 mmol/g

## Pinoresinol
[1]
  EC50: 0.02 µg/mL
[2]
  capturing capacity: 7.8 mmol/g
